The target in one test is hNav1.4 (Homo sapiens, UniProt P35499). Nature of the test: cell-based. It counts as cell-based. As to conditions: Table 12; for IC50: PatchXpress, tonic block, read-out: PX hNav1.4 Tonic IC50; for Nav1.4/Nav1.7: ratio of PX tonic IC50 values.
In the next test the target is hNav1.7 (Homo sapiens, UniProt Q15858). The experiment in a line: cell-based. To be noted: Table 12; PatchXpress, tonic block; read-out: PX hNav1.7 Tonic IC50. Type of test: cell-based.
Chain of hNav1.7 (Q15858 whole entry): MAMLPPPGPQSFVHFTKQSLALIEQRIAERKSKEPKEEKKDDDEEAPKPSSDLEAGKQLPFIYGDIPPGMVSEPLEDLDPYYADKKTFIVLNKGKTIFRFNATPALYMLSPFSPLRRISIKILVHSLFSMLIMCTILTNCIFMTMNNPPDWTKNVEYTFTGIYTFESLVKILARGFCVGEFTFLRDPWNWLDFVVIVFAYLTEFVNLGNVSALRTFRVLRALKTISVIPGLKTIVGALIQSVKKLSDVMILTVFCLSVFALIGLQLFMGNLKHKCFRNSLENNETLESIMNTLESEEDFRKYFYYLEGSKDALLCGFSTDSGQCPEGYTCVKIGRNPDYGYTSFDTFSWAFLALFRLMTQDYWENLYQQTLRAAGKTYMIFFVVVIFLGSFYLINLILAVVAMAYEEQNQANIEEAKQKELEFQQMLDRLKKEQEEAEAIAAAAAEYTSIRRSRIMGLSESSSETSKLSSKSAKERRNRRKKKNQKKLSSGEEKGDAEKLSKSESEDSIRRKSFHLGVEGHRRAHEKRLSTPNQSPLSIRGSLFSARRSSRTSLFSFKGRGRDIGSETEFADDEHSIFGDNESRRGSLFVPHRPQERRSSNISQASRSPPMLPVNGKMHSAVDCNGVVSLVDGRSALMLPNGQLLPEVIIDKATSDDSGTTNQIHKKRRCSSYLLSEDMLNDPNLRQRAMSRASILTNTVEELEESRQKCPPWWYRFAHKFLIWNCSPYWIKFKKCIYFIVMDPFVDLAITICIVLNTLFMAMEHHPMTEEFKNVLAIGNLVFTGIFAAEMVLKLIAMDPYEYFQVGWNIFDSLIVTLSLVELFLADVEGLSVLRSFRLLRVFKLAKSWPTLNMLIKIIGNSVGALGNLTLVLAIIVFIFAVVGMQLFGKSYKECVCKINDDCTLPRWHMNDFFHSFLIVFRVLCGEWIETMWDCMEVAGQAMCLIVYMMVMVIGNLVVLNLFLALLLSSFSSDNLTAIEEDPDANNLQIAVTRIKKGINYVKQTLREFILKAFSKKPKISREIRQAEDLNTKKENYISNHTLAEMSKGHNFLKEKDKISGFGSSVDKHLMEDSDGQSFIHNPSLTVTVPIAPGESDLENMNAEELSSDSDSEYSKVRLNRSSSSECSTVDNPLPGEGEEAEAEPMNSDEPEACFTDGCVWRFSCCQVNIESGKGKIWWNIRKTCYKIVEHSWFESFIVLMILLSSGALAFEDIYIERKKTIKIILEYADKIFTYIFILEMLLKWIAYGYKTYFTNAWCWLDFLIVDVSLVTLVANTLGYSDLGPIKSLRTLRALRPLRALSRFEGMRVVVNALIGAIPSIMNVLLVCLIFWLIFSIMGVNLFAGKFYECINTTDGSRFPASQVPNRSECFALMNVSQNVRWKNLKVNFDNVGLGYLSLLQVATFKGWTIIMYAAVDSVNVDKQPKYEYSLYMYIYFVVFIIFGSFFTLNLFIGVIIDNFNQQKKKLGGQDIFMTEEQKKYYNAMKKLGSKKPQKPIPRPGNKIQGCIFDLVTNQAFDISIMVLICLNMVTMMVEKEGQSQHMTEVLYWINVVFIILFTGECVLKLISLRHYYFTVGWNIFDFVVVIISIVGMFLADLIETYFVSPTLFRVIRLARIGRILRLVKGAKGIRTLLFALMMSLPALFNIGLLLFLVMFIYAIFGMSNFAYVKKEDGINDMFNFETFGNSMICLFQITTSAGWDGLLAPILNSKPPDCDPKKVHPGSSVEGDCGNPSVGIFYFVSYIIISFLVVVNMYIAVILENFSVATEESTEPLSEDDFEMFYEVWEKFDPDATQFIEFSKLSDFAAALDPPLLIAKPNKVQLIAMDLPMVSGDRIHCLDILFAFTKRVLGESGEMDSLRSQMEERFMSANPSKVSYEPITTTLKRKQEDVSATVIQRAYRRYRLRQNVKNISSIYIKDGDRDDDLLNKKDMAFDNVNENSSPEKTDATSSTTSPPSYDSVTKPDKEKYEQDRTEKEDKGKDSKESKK

Chain of hNav1.4 (P35499 whole entry): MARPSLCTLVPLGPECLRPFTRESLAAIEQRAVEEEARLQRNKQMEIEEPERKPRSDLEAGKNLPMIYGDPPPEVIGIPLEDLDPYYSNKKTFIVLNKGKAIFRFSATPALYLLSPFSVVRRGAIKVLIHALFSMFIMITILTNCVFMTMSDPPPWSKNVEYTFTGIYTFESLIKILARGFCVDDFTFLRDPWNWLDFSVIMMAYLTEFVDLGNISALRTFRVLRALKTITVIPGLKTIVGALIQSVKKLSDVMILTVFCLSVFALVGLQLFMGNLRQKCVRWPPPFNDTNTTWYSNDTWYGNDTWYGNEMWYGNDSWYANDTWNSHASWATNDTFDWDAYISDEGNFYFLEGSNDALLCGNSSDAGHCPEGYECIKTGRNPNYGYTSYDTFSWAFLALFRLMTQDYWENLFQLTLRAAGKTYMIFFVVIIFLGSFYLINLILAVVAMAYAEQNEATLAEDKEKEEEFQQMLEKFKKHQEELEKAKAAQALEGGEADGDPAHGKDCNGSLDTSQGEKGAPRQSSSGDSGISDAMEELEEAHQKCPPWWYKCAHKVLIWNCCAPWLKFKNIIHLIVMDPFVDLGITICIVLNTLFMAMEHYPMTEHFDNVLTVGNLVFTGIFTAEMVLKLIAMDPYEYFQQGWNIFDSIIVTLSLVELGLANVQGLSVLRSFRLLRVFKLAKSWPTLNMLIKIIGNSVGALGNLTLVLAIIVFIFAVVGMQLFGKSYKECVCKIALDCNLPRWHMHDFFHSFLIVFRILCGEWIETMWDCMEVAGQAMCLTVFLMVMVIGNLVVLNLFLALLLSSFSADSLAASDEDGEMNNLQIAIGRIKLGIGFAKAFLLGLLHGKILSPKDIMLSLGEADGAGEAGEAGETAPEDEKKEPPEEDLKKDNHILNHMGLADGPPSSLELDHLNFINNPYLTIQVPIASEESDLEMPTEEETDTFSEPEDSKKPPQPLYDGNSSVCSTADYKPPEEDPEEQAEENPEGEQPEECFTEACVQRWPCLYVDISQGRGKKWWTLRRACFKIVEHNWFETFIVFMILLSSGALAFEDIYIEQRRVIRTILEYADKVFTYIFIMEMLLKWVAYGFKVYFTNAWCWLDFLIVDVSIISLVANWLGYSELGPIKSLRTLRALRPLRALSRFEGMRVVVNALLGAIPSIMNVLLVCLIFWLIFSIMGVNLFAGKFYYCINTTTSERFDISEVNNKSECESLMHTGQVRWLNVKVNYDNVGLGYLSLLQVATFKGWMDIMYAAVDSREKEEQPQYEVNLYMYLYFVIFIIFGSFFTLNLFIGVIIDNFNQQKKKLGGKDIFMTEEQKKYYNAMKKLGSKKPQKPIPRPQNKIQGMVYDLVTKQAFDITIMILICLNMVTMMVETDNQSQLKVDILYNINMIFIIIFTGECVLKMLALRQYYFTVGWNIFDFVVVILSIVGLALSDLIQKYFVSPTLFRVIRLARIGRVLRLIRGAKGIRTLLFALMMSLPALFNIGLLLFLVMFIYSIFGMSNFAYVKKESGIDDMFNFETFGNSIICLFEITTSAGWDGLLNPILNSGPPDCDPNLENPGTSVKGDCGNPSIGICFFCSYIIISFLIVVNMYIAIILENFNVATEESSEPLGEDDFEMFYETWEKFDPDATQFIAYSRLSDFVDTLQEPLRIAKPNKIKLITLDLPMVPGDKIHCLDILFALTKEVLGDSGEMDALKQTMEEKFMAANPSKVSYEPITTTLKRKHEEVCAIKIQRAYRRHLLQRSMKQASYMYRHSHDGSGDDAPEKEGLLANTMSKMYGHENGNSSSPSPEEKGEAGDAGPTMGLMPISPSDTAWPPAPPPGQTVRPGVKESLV

With `C#CC[C@H](N)C(=O)N[C@@H](Cc1ccc(O)cc1)C(=O)N[C@H]1CSSC[C@@H]2NC(=O)[C@@H]3CSSC[C@@H](C(=O)N[C@@H](CCCNC(=N)N)C(=O)N[C@@H](CCCCN)C(=O)N[C@@H](CC(C)C)C(=O)N[C@H](C(N)=O)[C@@H](C)CC)NC(=O)[C@H](Cc4c[nH]c5ccccc45)NC(=O)[C@H](CC(C)C)NC(=O)[C@H](CCCCN)NC(=O)[C@H](CSSC[C@H](NC(=O)[C@H]([C@@H](C)O)NC(=O)[C@H](Cc4c[nH]c5ccccc45)NC(=O)[C@H](CCCC)NC(=O)[C@H](Cc4c[nH]c5ccccc45)NC(=O)[C@H](CCCCN)NC(=O)[C@H](CCC(N)=O)NC1=O)C(=O)N[C@@H](CC(=O)O)C(=O)N[C@@H](CO)C(=O)N[C@@H](CCCCN)C(=O)N[C@@H](CCCNC(=N)N)C(=O)N[C@@H](C)C(=O)N3)NC(=O)[C@H](CCCNC(=N)N)NC(=O)[C@H](CC(C)C)NC(=O)CNC(=O)[C@H](CCC(=O)O)NC2=O` [compound 655], at hNav1.4, the IC50 (in general, the concentration at which inhibition is half-maximal) was 25.9 nM and the Nav1.4/Nav1.7 was 9. Besides, the IC50 at hNav1.7 was found to be 2.91 nM.
With `C#CC[C@H](N)C(=O)N[C@@H](Cc1ccc(O)cc1)C(=O)N[C@H]1CSSC[C@@H]2NC(=O)[C@@H]3CSSC[C@@H](C(=O)N[C@@H](CCCNC(=N)N)C(=O)N[C@@H](CCCCN)C(=O)N4CCC[C@H]4C(=O)N[C@H](C(N)=O)[C@@H](C)CC)NC(=O)[C@H](Cc4c[nH]c5ccccc45)NC(=O)[C@H](CC(C)C)NC(=O)[C@H](CCCCN)NC(=O)[C@H](CSSC[C@H](NC(=O)[C@H]([C@@H](C)O)NC(=O)[C@H](Cc4c[nH]c5ccccc45)NC(=O)[C@H](CCCC)NC(=O)[C@H](Cc4c[nH]c5ccccc45)NC(=O)[C@H](CCCCN)NC(=O)[C@H](CCC(N)=O)NC1=O)C(=O)N[C@@H](CC(=O)O)C(=O)N[C@@H](CO)C(=O)N[C@@H](CCCCN)C(=O)N[C@@H](CCCNC(=N)N)C(=O)N[C@@H](C)C(=O)N3)NC(=O)[C@H](CCCNC(=N)N)NC(=O)[C@H](CC(C)C)NC(=O)CNC(=O)[C@H](CCC(=O)O)NC2=O` [compound 657], the results for the IC50 on hNav1.4 and on hNav1.7 were 206 nM and 1.97 nM, respectively. Further, the Nav1.4/Nav1.7 at hNav1.4 came to 105.
Take `C#CC[C@H](N)C(=O)N[C@@H](Cc1ccc(O)cc1)C(=O)N[C@H]1CSSC[C@@H]2NC(=O)[C@@H]3CSSC[C@@H](C(=O)N[C@@H](CCCNC(=N)N)C(=O)N[C@@H](CCCCN)C(=O)N[C@@H](CCC(=O)O)C(=O)N[C@H](C(N)=O)[C@@H](C)CC)NC(=O)[C@H](Cc4c[nH]c5ccccc45)NC(=O)[C@H](CC(C)C)NC(=O)[C@H](CCCCN)NC(=O)[C@H](CSSC[C@H](NC(=O)[C@H]([C@@H](C)O)NC(=O)[C@H](Cc4c[nH]c5ccccc45)NC(=O)[C@H](CCCC)NC(=O)[C@H](Cc4c[nH]c5ccccc45)NC(=O)[C@H](CCCCN)NC(=O)[C@H](CCC(N)=O)NC1=O)C(=O)N[C@@H](CC(=O)O)C(=O)N[C@@H](CO)C(=O)N[C@@H](CCC(=O)O)C(=O)N[C@@H](CCCNC(=N)N)C(=O)N[C@@H](C)C(=O)N3)NC(=O)[C@H](CCCNC(=N)N)NC(=O)[C@H](CC(C)C)NC(=O)CNC(=O)[C@H](CCCCN)NC2=O` [compound 728]: at hNav1.4, the IC50 amounted to 405 nM and the Nav1.4/Nav1.7 is on record as 46. Moreover, the IC50 on hNav1.7 was found to be 8.76 nM.
In the same order, the values of `C#CC[C@H](N)C(=O)N[C@@H](Cc1ccc(O)cc1)C(=O)N[C@H]1CSSC[C@@H]2NC(=O)[C@@H]3CSSC[C@@H](C(=O)N[C@@H](CCCNC(=N)N)C(=O)N[C@@H](CCCCN)C(=O)N[C@H](C(=O)N[C@H](C(N)=O)[C@@H](C)CC)[C@@H](C)CC)NC(=O)[C@H](Cc4c[nH]c5ccccc45)NC(=O)[C@H](CC(C)C)NC(=O)[C@H](CCCCN)NC(=O)[C@H](CSSC[C@H](NC(=O)[C@H]([C@@H](C)O)NC(=O)[C@H](Cc4c[nH]c5ccccc45)NC(=O)[C@H](CCCC)NC(=O)[C@H](Cc4c[nH]c5ccccc45)NC(=O)[C@H](CCCCN)NC(=O)[C@H](CCC(N)=O)NC1=O)C(=O)N[C@@H](CC(=O)O)C(=O)N[C@@H](CO)C(=O)N[C@@H](CCC(=O)O)C(=O)N[C@@H](CCCNC(=N)N)C(=O)N[C@@H](C)C(=O)N3)NC(=O)[C@H](CCCNC(=N)N)NC(=O)[C@H](CC(C)C)NC(=O)CNC(=O)[C@H](CCCCN)NC2=O` [compound 729] are 7.6 nM, 4 and 1.87 nM.
In the case of `C#CC[C@H](N)C(=O)N[C@@H](Cc1ccc(O)cc1)C(=O)N[C@H]1CSSC[C@@H]2NC(=O)[C@@H]3CSSC[C@@H](C(=O)N[C@@H](CCCNC(=N)N)C(=O)N[C@@H](CCCCN)C(=O)N[C@H](C(=O)N[C@H](C(N)=O)[C@@H](C)CC)[C@@H](C)CC)NC(=O)[C@H](Cc4c[nH]c5ccccc45)NC(=O)[C@H](CC(C)C)NC(=O)[C@H](CCCCN)NC(=O)[C@H](CSSC[C@H](NC(=O)[C@H]([C@@H](C)O)NC(=O)[C@H](Cc4c[nH]c5ccccc45)NC(=O)[C@H](CCCC)NC(=O)[C@H](Cc4c[nH]c5ccccc45)NC(=O)[C@H](CCCCN)NC(=O)[C@H](CCC(N)=O)NC1=O)C(=O)N[C@@H](CC(=O)O)C(=O)N[C@@H](CO)C(=O)N[C@@H](CCC(=O)O)C(=O)N[C@@H](CCCNC(=N)N)C(=O)N[C@@H](C)C(=O)N3)NC(=O)[C@H](CCCNC(=N)N)NC(=O)[C@H](CC(C)C)NC(=O)CNC(=O)[C@H](CCC(=O)O)NC2=O` [compound 730], at hNav1.4, the IC50 stood at 37.2 nM and the Nav1.4/Nav1.7 was 31. In addition, the IC50 on hNav1.7 was determined as 1.19 nM.
Regarding `C#CC[C@H](N)C(=O)N[C@@H](CCC(=O)O)C(=O)N[C@H]1CSSC[C@@H]2NC(=O)[C@@H]3CSSC[C@@H](C(=O)N[C@@H](CCCNC(=N)N)C(=O)N[C@@H](CCCCN)C(=O)N[C@@H](CCC(=O)O)C(=O)N[C@H](C(N)=O)[C@@H](C)CC)NC(=O)[C@H](Cc4c[nH]c5ccccc45)NC(=O)[C@H](CC(C)C)NC(=O)[C@H](CCCCN)NC(=O)[C@H](CSSC[C@H](NC(=O)[C@H]([C@@H](C)O)NC(=O)[C@H](Cc4c[nH]c5ccccc45)NC(=O)[C@H](CCCC)NC(=O)[C@H](Cc4c[nH]c5ccccc45)NC(=O)[C@H](CCCCN)NC(=O)[C@H](CCC(N)=O)NC1=O)C(=O)N[C@@H](CC(=O)O)C(=O)N[C@@H](CCC(=O)O)C(=O)N[C@@H](CCCCN)C(=O)N[C@@H](CCCNC(=N)N)C(=O)N[C@@H](CCC(=O)O)C(=O)N3)NC(=O)[C@H](CCCNC(=N)N)NC(=O)[C@H](CC(C)C)NC(=O)CNC(=O)[C@H](CCC(=O)O)NC2=O` [compound 751], the half-inhibitory concentration (IC50) on hNav1.4 turned out to be 1920 nM; at hNav1.7, 10.2 nM. Further, the Nav1.4/Nav1.7 on hNav1.4 came out at 189.
Regarding `C#CC[C@H](N)C(=O)N[C@@H](Cc1ccc(O)cc1)C(=O)N[C@H]1CSSC[C@@H]2NC(=O)[C@@H]3CSSC[C@@H](C(=O)N[C@@H](CCCNC(=N)N)C(=O)N[C@@H](CCCCN)C(=O)N[C@@H](CCC(=O)O)C(=O)N[C@H](C(=O)NCC(=O)O)[C@@H](C)CC)NC(=O)[C@H](Cc4c[nH]c5ccccc45)NC(=O)[C@H](CC(C)C)NC(=O)[C@H](CCCCN)NC(=O)[C@H](CSSC[C@H](NC(=O)[C@H]([C@@H](C)O)NC(=O)[C@H](Cc4c[nH]c5ccccc45)NC(=O)[C@H](CCCC)NC(=O)[C@H](Cc4c[nH]c5ccccc45)NC(=O)[C@H](CCCCN)NC(=O)[C@H](CCC(N)=O)NC1=O)C(=O)N[C@@H](CC(=O)O)C(=O)N[C@@H](CO)C(=O)N[C@@H](CCCCN)C(=O)N[C@@H](CCCNC(=N)N)C(=O)N[C@@H](C)C(=O)N3)NC(=O)[C@H](CCCNC(=N)N)NC(=O)[C@H](CC(C)C)NC(=O)CNC(=O)[C@H](CCC(=O)O)NC2=O` [compound 828], the figures for the IC50 on hNav1.4 and at hNav1.7 were 1760 nM and 8.34 nM, respectively. Moreover, the Nav1.4/Nav1.7 at hNav1.4 came out at 211.

The record behind these values is patent publication US10344060B2 (priority 2013, dated 2019).
